# Measured values as given in patent US4179337A, “Non-immunogenic polypeptides” (priority 1977, dated 1979).
# Key:
# [1] = system: rabbit antiserum after immunization with catalase; assay: Microtiter complement-fixation test; type: binding; settings: initial and booster sera
# Description: (§1) Immunization - New Zealand, white adult female rabbits were immunized by the intravenous route with a 1.5 mg/ml. stock solution of beef liver catalase for a period of 4 weeks by which time it received a total of 55 mg. of catalase. Rabbits were bled by cardiac puncture 7 and 14 days after completion of the immunization schedule. Approximately 1 month later, rabbits were injected with 5 mg. of the appropriate antigen and bled by cardiac puncture 1 week after receiving the booster injection.
# (§2) Rabbit antisera obtained after initial or booster immunization were assayed in vitro for precipitating (1) and complement fixing activities (2,3). Each antiserum (undiluted, 1/10, 1/50) was set up in gel diffusion plates (1.0% Noble Agar in physiological saline with 1.0% azide added as preservative) against both catalase and PEG-HTA-catalase solutions (concentrations ranging from 1000γ/ml. to 5γ/ml). Plates were incubated at room temperature for 48 hours and at 4° C. for 3-4 days. Complement fixing activity of the heat inactivated, sheep red blood cell absorbed antisera was determined using the Microtiter Complement-fixation test (Cooke Engineering Co., Alexandria, Virginia). Antisera were run 1:1 and 1:10 dilutions against catalse and PEG-HTA-catalase dilutions ranging from 1000γ/ml. down to 15γ/ml. Plates were read for presence or absence of hemolysis following incubation at 37° C. for 30 minutes.
# [2] = system: rabbit antiserum after immunization with catalase; assay: Gel diffusion test for precipitating antibodies; type: binding; settings: antiserum against native catalase, tested undiluted and 1/10
# Description: as §1, §2
# [3] = system: rats made diabetic utilizing alloxan injections; assay: PEG insulin rat assay, alloxan diabetic rats; type: in vivo; design: % Drop Over Control: concentration or dose not given beside the values
# [4] = Insulin activity (animal assay); settings: in vivo
# test rabbits = assay: PEG-HTA-insulin assay, blood sugar levels in test rabbits (Glucostat method); type: in vivo, rabbit; settings: after 3 hours, same amount of insulin injected
# Description: Preliminary insulin and PEG-HTA-insulin containing the same amount of insulin were injected into test rabbits and blood sugar levels measured by the "Glucostat" method (Worthington Biochemical Corporation, Freehold, N. J.).
# insulin antiserum = assay: PEG-insulin immunoassay (radioimmunoassay); type: binding
# Description: PEG-HTA-Insulin was prepared in accordance with Example II and tested for antigenic activity by the method of […]
# [5] = intravenous, 8 hrs (animals fed after 5 hrs)
substance,measurement,setting,value
"Hydrogen Peroxide: Hydrogen-Peroxide Oxidoreductase (1.11.1.6; ""Catalase"")-2-PEG-4-Hydroxy-1,3,5-Triazin-6-yl Conjugate [modified catalase]",complement-fixing activity,[1],negative
same,"precipitating antibodies, gel diffusion",[2],no evidence of any cross-reactions
Hydrogen-peroxide: hydrogen-peroxide oxidoreductase [Unmodified catalase],complement-fixing activity,[1],positive
same,"precipitating antibodies, gel diffusion",[2],positive
"Insulin PEG-4-Hydroxy-1,3,5-Triazin-6-yl Conjugate [PEG HTA Insulin (pH 9.2)]",Blood Glucose Level,"[3]; intravenous, 0 hrs (initial level)",305 mg/100 ml.
same,% Drop Over Control,"[3]; intravenous, 2 hrs",76.2%
same,Blood Glucose Level,"[3]; intravenous, 2 hrs",72.5 mg/100 ml.
same,Drop Over Initial Level,"[3]; intravenous, 2 hrs",232 mg/100 ml
same,% Drop Over Control,"[3]; intravenous, 4 hrs",66.7%
same,Blood Glucose Level,"[3]; intravenous, 4 hrs",101.5 mg/100 ml.
same,Drop Over Initial Level,"[3]; intravenous, 4 hrs",203.5 mg/100 ml
same,% Drop Over Control,[3]; [5],24.6%
same,Blood Glucose Level,[3]; [5],230 mg/100 ml.
same,Drop Over Initial Level,[3]; [5],75 mg/100 ml
insulin [Unmodified Insulin],Insulin Activity (animal assay),[4],137 μ units/ml.
same,Blood Glucose Level,test rabbits,20 % of normal
same,Insulin Antibodies Activity (radioimmunoassay),insulin antiserum,127 μ units/ml.
same,Blood Glucose Level,"[3]; intramuscularly, 0 hrs (initial level)",410 mg/100 ml.
same,% Drop Over Control,"[3]; intramuscularly, 1 hr",32.9%
same,Blood Glucose Level,"[3]; intramuscularly, 1 hr",295 mg/100 ml.
same,Drop Over Initial Level,"[3]; intramuscularly, 1 hr",135 mg/100 ml
same,% Drop Over Control,"[3]; intramuscularly, 2 hrs",34.1%
same,Blood Glucose Level,"[3]; intramuscularly, 2 hrs",270 mg/100 ml.
same,Drop Over Initial Level,"[3]; intramuscularly, 2 hrs",140 mg/100 ml
same,% Drop Over Control,"[3]; intramuscularly, 4 hrs",29.2%
same,Blood Glucose Level,"[3]; intramuscularly, 4 hrs",290 mg/100 ml.
same,Drop Over Initial Level,"[3]; intramuscularly, 4 hrs",120 mg/100 ml
same,% Drop Over Control,"[3]; intramuscularly, 6 hrs",02.4%
same,Blood Glucose Level,"[3]; intramuscularly, 6 hrs",400 mg/100 ml.
same,Drop Over Initial Level,"[3]; intramuscularly, 6 hrs",10 mg/100 ml
